Data from US20060014717A1, “Therapeutic compositions for use in prophylaxis or treatment of diarrheas” (priority 2002, published 2006).

What was measured:
[1] = tested on: an ETEC and an EPEC strain; conditions: cited from earlier work
H. pylori CCUG 17875 = assay: Binding of 35S-labeled Helicobacter species to glycosphingolipids on thin-layer chromatograms; design: species or system Helicobacter pylori; key: + denotes a significant darkening on the autoradiogram when 2 μg (or 40 μg in the case of the last sample) was applied to TLC plates; − denotes no binding; conditions: 2 μg (40 μg for the glycosphingolipid fraction) on TLC plates
Text: (§1) Gastric species examined in the present study included, Helicobacter mustelae ferret isolates from the National Collection of Type Cultures (NCTC) and the Culture Collection of the University of Gothenberg (CCUG), NCTC 12198/CCUG 25175 (equivalent strains from different sources tested), CCUG 23950 and CCUG 23951, Helicobacterfelis CCUG 28539 from a cat, in addition, H. pylori strains CCUG 17874, CCUG 17875 and a clinical isolate 119/95 were used. Enterohepatic helicobacters of animal origin were purchased from the CCUG including, Helicobacter canes CCUG 33835, Helicobacter bilis CCUG 38995, Helicobacter hepaticus CCUG 33637, and Helicobacterfennelliae (CCUG 18820).
(§2) Binding of Helicobacter spp. to glycosphingolipids, both acid and non-acidfractions. Glycosphingolipids were isolated by standard procedures (Karlsson, 1987). The identity of the purified glycosphingolipids was confirmed by mass spectrometry (Samuelsson et al., 1990), proton NMR spectroscopy (Koerner et al., 1983) and degradation studies (Stellner et al., 1973; Yang and Hakomori, 1971).
(§3) Mixtures of glycosphingolipids (40 μg/lane) or pure compounds (2 μg/lane) were subsequently separated using thin-layer chromatography (TLC) on glass- or aluminum-backed silica gel 60 HPTLC plates (Merck, Darmstadt, Germany), with chloroform/methanot/water (60:35:8, by volume) as solvent system. Chemical detection was accomplished by anisaldehyde (Waldi, 1962). Helicobacter spp. were subjected to ^35S-labeling (Angstrom et al., 1998) and suspended in PBS (10^8 CFU/ml) with a specific activity of approximately 1 cpm per 100 organisms. Binding of the labeled-bacteria to glycosphingolipids separated by TLC was achieved using a bacterial-overlay technique coupled with autoradiography detection using XAR-5 X-ray films (Eastman Kodak, Rochester, N.Y.) as previously described (Hansson et al., 1985).

H. pylori CCUG 17874 = assay: as above; design: species or system Helicobacter pylori; key: + denotes a significant darkening on the autoradiogram when 2 μg (or 40 μg in the case of the last sample) was applied to TLC plates; − denotes no binding; conditions: 2 μg (40 μg for the glycosphingolipid fraction) on TLC plates
Text: as §1, §2, §3

H. felis CCUG 28539 = assay: as above; design: species or system Helicobacter felis; key: + denotes a significant darkening on the autoradiogram when 2 μg (or 40 μg in the case of the last sample) was applied to TLC plates; − denotes no binding; conditions: 2 μg (40 μg for the glycosphingolipid fraction) on TLC plates
Text: as §1, §2, §3

[2] = tested on: gastric and enterohepatic Helicobacter spp.; assay: Binding of Helicobacter spp. to glycosphingolipids (statements for several species)
Text: as §1, §2, §3

H. canis CCUG 33835 = assay: Binding of 35S-labeled Helicobacter species to glycosphingolipids on thin-layer chromatograms; design: species or system Helicobacter canis; key: + denotes a significant darkening on the autoradiogram when 2 μg (or 40 μg in the case of the last sample) was applied to TLC plates; − denotes no binding; conditions: 2 μg (40 μg for the glycosphingolipid fraction) on TLC plates
Text: as §1, §2, §3

H. mustelae 25715 = assay: as above; design: species or system Helicobacter mustelae; key: + denotes a significant darkening on the autoradiogram when 2 μg (or 40 μg in the case of the last sample) was applied to TLC plates; − denotes no binding; conditions: 2 μg (40 μg for the glycosphingolipid fraction) on TLC plates
Text: as §1, §2, §3

[3] = tested on: H. mustelae CCUG 23950 & 23951; assay: as above; design: species or system Helicobacter mustelae; key: + denotes a significant darkening on the autoradiogram when 2 μg (or 40 μg in the case of the last sample) was applied to TLC plates; − denotes no binding; conditions: 2 μg (40 μg for the glycosphingolipid fraction) on TLC plates
Text: as §1, §2, §3

H. bilis CCUG 38995 = assay: as above; design: species or system Helicobacter bilis; key: + denotes a significant darkening on the autoradiogram when 2 μg (or 40 μg in the case of the last sample) was applied to TLC plates; − denotes no binding; conditions: 2 μg (40 μg for the glycosphingolipid fraction) on TLC plates
Text: as §1, §2, §3

H. hepaticus CCUG 33637 = assay: as above; design: species or system Helicobacter hepaticus; key: + denotes a significant darkening on the autoradiogram when 2 μg (or 40 μg in the case of the last sample) was applied to TLC plates; − denotes no binding; conditions: 2 μg (40 μg for the glycosphingolipid fraction) on TLC plates
Text: as §1, §2, §3

E. coli EIEC CCUG 38092 = assay: Chromatogram binding assay, binding specificities of type strains; design: species or system Escherichia coli; conditions: prolonged sub-culture, 4 μg per lane
Procedure: Culture Conditions and Labeling—The E. coli strains were cultured on Luria-agar with the addition of 10 μl ^35S-methionine (400 tici; Amersham Pharmacia Biotech, U.K.) at 37° C. for 12 h. The bacteria were harvested by scraping, washed three times with phosphate-buffered saline (PBS), pH 7.3, and thereafter resuspended in PBS (with or without 1% mannose (w/v)) to 1×10^8 CFU/ml. The specific activities of the suspensions were approximately 1 cpm per 100 bacteria.
Thin-Layer Chromatography—Thin-layer chromatography of glycosphingolipids was performed on glass- or aluminum-backed silica gel 60 HPTLC plates (Merck, Darmstadt, Germany), using chloroform/methanol/water 60:35:8 (by volume) as solvent system. Chemical detection was done with anisaldehyde (6).
(§4) Glycosphingolipid Binding Assays—Binding of ^35S-labeled bacteria to glycosphingolipids on thin-layer chromatograms was done as reported (7). Dried chromatograms were dipped for 1 min in diethylether/n-hexane (1:5, by volume) containing 0.5% (w/v) polyisobutylmethacrylate (Aldrich Chem. Comp. Inc., Milwaukee, Wis.). After drying, the chromatograms were soaked in PBS containing 2% bovine serum albumin (w/v), 0.1% NaN3 (w/v) and 0.1% Tween 20 (by volume) for 2 h at room temperature. The chromatograms were subsequentely covered with radiolabeled bacteria diluted in PBS (2-5×10^6 cpm/ml). Incubation was done for 2 h at room temperature, followed by repeated washings with PBS. The chromatograms were thereafter autoradiographed using XAR-5 X-ray films (Eastman Kodak, Rochester, N.Y.) for 12 h. Autoradiograms were replicated using a CCD camera (Dage-MTI, Inc., Michigan City, Ind.), and analysis of the images was performed using the public domain NIH Image program (developed at the U.S. National Institutes of Health, and available at http://rsb.info.nih.eov/nih-imaee/).
However, several wild type diarrheagenic E. coli strains bind to sialic acid (see e.g. FIG. 6 and FIG. 3). […]

EPEC strain = conditions: listed in decreasing order of activity; cited from earlier work
diarrheagenic E. coli = assay: Comparison of binding to dilution series of sialyl-neolactotetraosylceramide variants; design: species or system Escherichia coli; conditions: dilution series of glycolipids
Procedure: as §4
To dissect the sialic acid binding preferences of diarrheagenic E. coli, the binding of bacteria to variants of sialyl-neoleactotetraosylceramide was compared. […] The comparison was performed by using dilution series of glycolipids and comparing the disappearence of the bindings when the amounts of glycolipids were reduced.

[4] = both gastric and enterohepatic Helicobacter spp. tested

Molecule	Inhibition of binding of an ETEC and an EPEC strain to Caco-2 cells [1]	Binding of glycosphingolipids to H.pylori 17875 (H. pylori CCUG 17875)	Binding of glycosphingolipids to H.pylori 17874 (H. pylori CCUG 17874)	Binding of glycosphingolipids to H.felis 28539 (H. felis CCUG 28539)	Binding of Helicobacter spp. to glycosphingolipid, in words [2, 4]	Binding of glycosphingolipids to H.canis 33835 (H. canis CCUG 33835)	Binding of glycosphingolipids to H.mustelae 25715 (H. mustelae 25715)	Binding of glycosphingolipids to H.mustelae 23950 & 23951 [3]	Binding of glycosphingolipids to H.bilis 38995 (H. bilis CCUG 38995)	Binding of glycosphingolipids to H.hepaticus 33637 (H. hepaticus CCUG 33637)	other results
CC(=O)N[C@H]1[C@H]([C@H](O)[C@H](O)CO)OC(O)(C(=O)O)C[C@@H]1O (stereo partly drawn) [N-acetylneuraminic acid]	negative	–	–	–	–	–	–	–	–	–	–
Galα3Galβ4Glcβ1Cer [No. 7]	–	+	+	+	capable of binding	+	+	+	+	+	Binding of E. coli CCUG 38092 to pure glycosphingolipids after sub-culture (E. coli EIEC CCUG 38092; listed as isoglobotriaosylceramide): Selective loss of binding
Galβ3GalNAcβ4(NeuAcα3)Galβ4Glcβ1Cer [No. 29]	inhibiting	–	–	–	–	–	–	–	–	–	–
Galβ3GalNAcβ4Galβ4Glcβ1Cer [No. 11]	–	+	+	+	–	+	+	+	+	+	Binding of an EPEC strain to commercial glycolipids (EPEC strain): observed to bind; Binding of Helicobacter spp. to glycosphingolipid, in words ([2]; H. felis, H. canis, H. hepaticus and H. bilis): binding was demonstrated; Binding of E. coli CCUG 38092 to pure glycosphingolipids after sub-culture (E. coli EIEC CCUG 38092): remain
Galβ3GlcNAcβ3Galβ4Glcβ1Cer [No. 23]	–	+	+	+	capable of binding	+	+	+	+	+	–
Galβ4Glcβ1Cer [No. 5]	–	+	+	+	capable of binding	+	+	+	+	+	–
NeuAcα3Galβ4GlcNAcβ3Galβ4Glcβ1Cer [No. 31]	–	–	–	–	–	–	–	–	–	–	Relative binding affinity, order by disappearance of binding in dilution series (diarrheagenic E. coli): finally
NeuGcα3Galβ4GlcNAcβ3Galβ4Glcβ1Cer [No. 33]	–	–	–	–	–	–	–	–	–	–	Relative binding affinity, order by disappearance of binding in dilution series (diarrheagenic E. coli): highest affinity
lactosylceramide	negative	–	–	–	–	–	–	–	–	–	Binding of an EPEC strain to commercial glycolipids (EPEC strain): negative
